Source: a melting point compilation (Tetko et al.; mined from patent text by program, amines drawn as free bases though some values may be those of a salt)

SMILES | melting point [°C]
Cc1nn(C)c2c1c(=O)n(-c1ccccc1)c1ncccc21 | > 300
CSCC(C)Nc1nccc(-c2ccnc(Nc3cccc(F)c3)c2)n1 (stereo not drawn) | 104 to 107
O=C1N(Cc2ccccc2)c2cc(Cl)cc(N3CCNCC3)c2S(=O)(=O)N1Cc1cccc(O)c1 | 230 to 231
COc1ccc(S(=O)(=O)CC(O)(CS(=O)(=O)c2ccc(F)cc2)C(=O)NO)cc1 (stereo not drawn) | 85 to 90
CC(=O)c1cncc(OC2SCC(O)C(O)C2O)c1 (stereo not drawn) | 209
O=C1CC(OC(CBr)CBr)N1 (stereo not drawn) | 80 to 80.5
CC(C)(C)OC(=O)NC(=Cc1ncoc1C(C)(C)C)C(=O)OC(C)(C)C | 170 to 172
CC(C)NCCCOc1ccc(N)cc1Cc1ccccc1 | 41.1
COc1ccc(Sc2[nH]cc(C(=O)O)c2Sc2ccc(OC)cc2)cc1 | 159 to 162
COc1ccc(C2=NN(c3ccccc3)C(c3ccc(NC(=S)Nc4ccccc4)cc3)C2)cc1 (stereo not drawn) | 153 to 156
CCCc1c(O)c(C(C)=O)cc2c(C)cc(C(=O)OCC)nc12 | 150 to 151
Cc1nc2c(OCc3ccccc3)nccn2c1C | 104 to 110
CN(C(=O)NN1CC=CCC1)c1ccccc1 | 99 to 99.5
CCCCCCCCCCCCCCCC(O)C(N)CO (stereo not drawn) | 81
CC(C)n1cnc2nc(-c3ccc(Cl)cc3)nn2c1=S | 230 to 232
CCCCS(=O)Cc1ccc(CCl)cc1 (stereo not drawn) | 112 to 113
CC1(C)CCCCc2ccc(C(=O)O)cc21 | 155 to 156
O=C(c1ccc(F)cc1)C1CCN(CCN2c3cccc4cccc(c34)S2(=O)=O)CC1 | 145
CC(C)(C)OC(=O)N1CCC(CC(=O)Nc2cccc(-c3ccnc4c(C(=O)c5cccs5)cnn34)c2)CC1 | 173 to 175
CCCc1c(OCCCCOCCCCOc2c(C(C)=O)ccc(OCC(=O)O)c2CCC)ccc(C(C)=O)c1O | 68 to 71
CCOC(=O)C(C#N)=NOC(=O)OCC(Cl)(Cl)Cl | 51 to 53
COc1ccc2cc3c(N)nn(-c4ccccc4)c3nc2c1 | 159 to 160
COc1ccc(F)cc1C(C)(C)c1cc(F)ccc1O | 90
CCOC(=O)c1ccc(Cl)c(Cl)c1 | 33 to 35
COc1ccc(-c2ccc3[nH]c(C(=O)O)cc3c2)cc1 | > 230
Cc1nc(N)sc1C(=O)OC(C)(C)C | 167 to 170

SMILES | melting point [°C]
COC(=O)C(=CNc1sccc1C(=O)O)SC | 192 to 194
O=C(CS)N[C@@H](Cc1c[nH]cn1)C(=O)O | 198 to 200
Cc1noc(C)c1-c1cncc(OC2SCC(O)C(O)C2O)c1 (stereo not drawn) | 222 to 223
O=C1CNC(SCc2ccccn2)=N1 | 105 to 107
O=C1CNc2c(Cl)cccc2N1 | 191 to 193
CS(=O)(=O)Nc1cc(N)c([N+](=O)[O-])cc1OC1CCCCC1 | 136 to 137
CCOC(=O)C(C)(C)Oc1ccc(C=CC(=O)c2ccccc2)cc1 | 68 to 70
CCOC(=O)c1cnc2c(NC(=O)c3c(Cl)cccc3Cl)cccc2c1COC(C)=O | 138 to 142
N=C(N)Nc1ccc(C(=O)Nc2cccc3cccnc23)cc1 | 271 to 273
O=C(O)c1cc(N=Nc2cc(C(=O)O)cc(SCc3ccccc3)c2C(=O)c2ccccc2)c(C(=O)c2ccccc2)c(SCc2ccccc2)c1 | 218 to 220
O=C1NCc2c1cc1ccc3c(c1c2-c1ccc(Br)cc1)OCO3 | 273 to 274
CCOC(=O)n1[nH]c(=O)c2c([N+](=O)[O-])cccc21 | 234 to 236
O=c1n(C(c2ccccc2)(c2ccccc2)c2ccccc2)nc2ccc(Cl)nn12 | 246 to 247
CCCCCCNC(=O)C1=C(C(=O)Nc2cc(OC3CCC(C)C3)c(Cl)cc2F)CCCC1 (stereo not drawn) | 127 to 129
COc1ccc2c(c1)NC(=O)C(CCCBr)O2 (stereo not drawn) | 102 to 103
CCCCCN(CCC12CC3CC(CC(C3)C1)C2)C(=O)NCc1ccncc1 | 96.5 to 108
OC1CSC(Oc2cccnc2)C(O)C1O (stereo not drawn) | 216
O=C(CCc1ccc(Cl)cc1)N1CCC(CCO)CC1 | 88 to 90
COC(=O)c1ccc(-c2nnc(-c3ccc(C(C)(C)C)cc3)o2)cc1 | 210 to 211
O=c1[nH]c(COCC(F)(F)F)nc2nccnc12 | 165 to 167
COCCOc1c(S(C)(=O)=O)ccc(C(=O)O)c1C | 104 to 106
CNC(=O)NCCn1c(-c2ccc(CN3CCOCC3)cc2)csc1=Nc1ccc(F)c(C)c1 | 142 to 145
CON=C(N)Nc1nc(C)cc(C)n1 | 134 to 136
CC(C)=CC=C(C#N)c1ccccc1 | 66 to 67
COc1cccc2c(CN3CC=C(/C=C/c4ccccc4)CC3)coc12 | 152 to 153
COc1ccc(-c2c(SCc3ccncc3)oc3cc(OC)ccc3c2=O)cc1 | 140 to 141

SMILES | melting point [°C]
CC(=O)N1c2ccccc2SC1C#N (stereo not drawn) | 92 to 93
O=C(N1CCOCC1)C1(c2onc(-c3ccc(O)cc3)c2-c2ccccc2)CC1 | 195 to 196
CC(C)c1nc(-c2cccc3c2OCO3)cc(-c2ccc(F)cc2)c1C=C(Br)Br | 129 to 131
CCN1c2ncccc2C(=O)Nc2c(C)cc(N3CCC(OC(C)=O)C3)nc21 (stereo not drawn) | 188 to 190
COC(=O)c1ccc(CC23CCCCN2C(=O)N(c2cc(Cl)cc(Cl)c2)C3=O)cc1 (stereo not drawn) | 51
CC(C)(C)c1ccc(Cn2c(=S)n(Cc3ccc(NS(C)(=O)=O)cc3)c3ccccc32)cc1 | 176 to 178
CCC(OC(=O)C1CC1)c1ccc(Cl)c2nc3n(c12)CCCN3c1ccc(OC)nc1C (stereo not drawn) | 149 to 151
CCOc1ccc(-c2nc(-c3ccc(OC4OC(COC(C)=O)C(OC(C)=O)C(OC(C)=O)C4OC(C)=O)cc3)cs2)cc1OCC (stereo not drawn) | 180 to 181
O=C(c1cccc(C(F)(F)F)c1)c1ccc[nH]1 | 54 to 56
BrCc1ccccc1-c1ccccc1CBr | 85 to 88
Cc1cccc2c1Sc1ccccc1N2 | 115
COC(=O)c1ccc(-c2ccc3cc4c(cc3c2)C(C)(C)CCC4(C)C)cc1O | 145 to 146
COc1cc2c(cc1C)CCN=C2C1(c2ccco2)CC1 | 98 to 100
CC(=O)c1c(-c2ccccc2Cl)nc2occn12 | 121 to 122
C=CCNc1nc(NC23CC4CC(CC(C4)C2)C3)c2scc(C)c2n1 | 107 to 109
CCOc1ccc2nc(SC(C)(C(=O)O)c3ccccc3)sc2c1 (stereo not drawn) | 152 to 153
CCC(C)(C)C(=O)Oc1cccc2ccc(OCCOc3ccc(C(=O)C(=O)OC)cc3)cc12 | 119 to 120
NCC1Cc2cccc(-c3cc(Cl)cc(Cl)c3)c2O1 (stereo not drawn) | 165 to 168
COc1c(C(=O)O)cc([N+](=O)[O-])c2ccccc12 | 102 to 104
O=C1NCCC[C@@H]1NS(=O)(=O)c1ccc(F)cc1F | 162 to 163
COc1ccn2nc(-c3ccccc3)c(-c3ccc(=O)[nH]n3)c2c1 | 246 to 247
C#CCCN1CCC(O)(c2ccc(Cl)cc2)CC1 | 98 to 100
CC1(Br)CCc2cc3c(cc2C1=O)CCO3 (stereo not drawn) | 95 to 98
CC(=O)NCc1ccc(CN2CCN(c3cccnc3)CC2)cc1 | 139 to 140
COC(=O)Nc1c(C(=O)OC)[nH]c2c(C)ccc(C)c12 | 184 to 185
CCOc1ccccc1OCCN(CCCC(OCC)c1ccc(F)cc1)C(C)=O (stereo not drawn) | 58 to 60

SMILES | melting point [°C]
CCOc1cc(C(CC(=O)OC)N2C(=O)c3cccc(N)c3C2=O)ccc1OC (stereo not drawn) | 134 to 136
CN(C)Cc1ccc(CSCCNC2=NS(=O)C(S(C)(=O)=O)=C2N)o1 (stereo not drawn) | 134 to 137
O=C(O)CCCCCCCCn1nnc(-c2ccccc2)c1-c1ccccc1 | 86 to 87
COc1ccc(Cn2c(Br)nc3c(-c4ccco4)ncnc32)cc1 | 150 to 151
CC(C)Nc1c(-c2cc(F)cc(F)c2F)c(Cl)nc2ncnn12 | 151
O=C(CCl)Nc1ccc2c(c1NC(=O)c1ccccc1Cl)C(=O)c1ccccc1C2=O | 193 to 194
CCOc1cc2c(c3c1[nH]c1ccc(O)cc13)C(=O)N(CCN(C)C)C2=O | 260 to 261
CCNc1nc(C)c(-c2ccnc(Nc3ccc4c(c3)OCO4)n2)s1 | 194 to 195
O=C1C[C@@H]2O[C@@H](CS(=O)(=O)Cc3ccccc3)CN12 (racemic) | 137 to 145
CC1(C)OC(c2ccc(S(N)(=O)=O)cc2)=C(c2cccc(C(F)(F)F)c2)C1=O | 129 to 130
C=CCOc1cccc2nn(C)c(S(N)(=O)=O)c12 | 143 to 144
COc1cc(C(=O)c2c(-c3ccc(OCCN4CCCC4)c(COCc4ccccc4)c3)sc3cc(O)ccc23)ccc1CN1CCOCC1 | 87 to 90
Oc1ccc2c(c1)OCC(c1ccccc1)C2c1ccc(OCCN2CCCCC2)cc1 (stereo not drawn) | 168 to 170
O=C(c1cncc(Br)c1)N1CCC(c2ccccc2)=N1 | 113 to 115
C=Cn1cc(C(=O)O)c(=O)c2c(C)c(F)c(N3CCNCC3)c(F)c21 | 222 to 225
Cc1nn(-c2ccccn2)cc1CO | 116 to 117
COC1=C(OC)C(=O)C2=C(CC(CCCCCCCCN3CCN(c4ccccn4)CC3)C2)C1=O | 80 to 84
COc1ccc(C(=O)Nc2cccc(-c3cccc4c3/C(=C/c3ccc[nH]3)C(=O)N4)c2)cc1 | 209 to 211
Cc1cc([N+](=O)[O-])ccc1N1CCOCC1 | 147 to 150
C=CCC(NC(=O)C(C)(C)C)C(=O)O (stereo not drawn) | 87 to 88
CN(Cc1ccco1)c1nccc(Oc2ccc(NC(=O)c3cc(F)cc(N4CCCCC4)c3)c3ccccc23)n1 | 155 to 156
CN1CCN(C(=O)[C@H](CCC(N)=O)NC(=O)CCc2ccc(OCc3ccccc3)cc2OCc2ccccc2)CC1 | 120 to 122
NC(=O)N(O)CCOCc1ccoc1 | 99 to 101
CSCC(=O)[C@H](Cc1ccccc1)NC(=O)[C@H](CC(C)C)NS(=O)(=O)c1ccccc1 | 133 to 136
O=C(NCc1ccc(Cl)cc1)c1cnc2ccc(Br)cc2c1O | 282 to 283
